Measurements from ChEMBL document CHEMBL6121063, “Identification of a Potent and Selective CDK9 Degrader as a Targeted Therapeutic Option for the Treatment of Small-Cell Lung Cancer” (J Med Chem, 2025).
Active and inactive are the calls of the source. The rule behind the calls is not given here.

Legend:
NCI-H446 [1] = experiment: Downregulation of CDK9 protein level in human NCI-H446 cells at 10 nM incubated for 3 hrs by quantitative proteomic analysis; format: functional, cell-based
[2] = target: T1, Protein cereblon/Cyclin-dependent kinase 9 (Homo sapiens, UniProt P50750+Q96SW2); experiment: In vivo PROTAC activity at CRBN/CDK9 in female NU/NU mouse model xenografted with human NCI-H446 cells assessed as decrease in CDK9 expression in tumor at 12.5 to 25 mg/kg, po administered once daily for 15 days by immunohistochemical staining based analysis; format: functional, organism-based; settings: dose 12.5-25 mg/kg, time 15.0 day
[3] = target: Cyclin-dependent kinase 9 (Homo sapiens) (UniProt P50750); experiment: Inhibition of CDK9-related signaling in human NCI-H69 cells assessed as decrease in RNA polymerase II phosphorylation at Ser5 residue at 0.5 to 10 nM incubated for 24 hrs by Western blot analysis; format: cell-based; settings: dose 0.5-10 nM
NCI-H69 [4] = experiment: Induction of apoptosis in human NCI-H69 cells assessed as increase in cleaved PARP level incubated for 36 hrs by Western blot analysis; format: functional, cell-based
[5] = target: CDK4/Cyclin D3 (Homo sapiens) (UniProt P11802+P30281); experiment: Inhibition of CDK4/cyclin D3 (unknown origin) at 10 nM relative to control; format: protein-complex assay
[6] = target: T1, Protein cereblon/Cyclin-dependent kinase 9; experiment: PROTAC activity at CRBN/CDK9 in human NCI-H69 cells assessed as induction of CDK9 degradation preincubated with AT-7519 for 2 hrs followed by compound addition and measured after 3 hrs by Western blot analysis; format: cell-based
NCI-H446 [7] = experiment: Induction of apoptosis in human NCI-H446 cells incubated for 36 hrs by Annexin V-FITC/PI staining based flow cytometric analysis; format: functional, cell-based; settings: dose 1-8 nM
[8] = target: T1, Protein cereblon/Cyclin-dependent kinase 9; experiment: In vivo PROTAC activity at CRBN/CDK9 in female BALB/c nude mouse xenografted with human NCI-H446 cells assessed as induction of CDK9 degradation in tumor at 25 mg/kg, po measured after 6 to 12 hrs by Western blot analysis; format: functional, organism-based; settings: time 6-12 hrs
[9] = target: T1, Protein cereblon/Cyclin-dependent kinase 9; experiment: PROTAC activity at CRBN/CDK9 in human NCI-H446 cells assessed as induction of CDK9 degradation by measuring reduction in half-life incubated upto 24 hrs in presence of cycloheximide by Western blot analysis; format: cell-based
NCI-H69 [10] = experiment: Antiproliferative activity against human NCI-H69 cells assessed as reduction in cell viability incubated for 72 hrs in presence of thalidomide by celltiter-Glo assay; format: functional, cell-based
[11] = target: Cyclin-dependent kinase 2/cyclin E1 (Homo sapiens) (UniProt P24864+P24941); settings: dose 10.0 nM
[12] = target: T1, Protein cereblon/Cyclin-dependent kinase 9; experiment: PROTAC activity at CRBN/CDK9 in human NCI-H69 cells assessed as induction of CDK9 degradation at 10 nM by Western blot analysis; format: cell-based; settings: time 0.5-12 hrs
NCI-H446 [13] = experiment: Inhibition of colony formation in human NCI-H446 cells at 2 to 4 nM incubated for 8 days by crystal violet staining based analysis; format: functional, cell-based; settings: dose 2-4 nM, time 8.0 day
[14] = target: CDK3/Cyclin E (Homo sapiens) (UniProt P24864+Q00526); experiment: Inhibition of CDK3/cyclin E1 (unknown origin) at 10 nM relative to control; format: protein-complex assay
NCI-H69 [15] = experiment: Induction of apoptosis in human NCI-H69 cells at 1 nM by microscopic analysis; format: functional, cell-based
[16] = target: Cyclin-dependent kinase 1/cyclin B1 (Homo sapiens) (UniProt P06493+P14635); experiment: Inhibition of CDK1/cyclin B1 (unknown origin) at 10 nM relative to control; format: protein-complex assay
DMS-114 = experiment: Inhibition of colony formation in human DMS-114 cells at 2 to 4 nM incubated for 8 days by crystal violet staining based analysis; format: functional, cell-based; settings: dose 2-4 nM, time 8.0 day
[17] = target: T1, Protein cereblon/Cyclin-dependent kinase 9; experiment: PROTAC activity at CRBN/CDK9 in human NCI-H69 cells assessed as induction of CDK9 degradation at 10 nM measured within 3 hrs by Western blot analysis; format: cell-based
[18] = target: T1, Protein cereblon/Cyclin-dependent kinase 9; experiment: PROTAC activity at CRBN/CDK9 in human NCI-H69 cells assessed as increase in CDK9 ubiquitination preincubated with MG132 for 2 hrs followed by compound addition and measured after 3 hrs by co-immunoprecipitation analysis; format: cell-based
[19] = target: T1, Protein cereblon/Cyclin-dependent kinase 9; experiment: PROTAC activity at CRBN/CDK9 in human NCI-H69 cells assessed as induction of CDK9 degradation preincubated with MG132 for 2 hrs followed by compound addition and measured after 3 hrs by Western blot analysis; format: cell-based
[20] = target: CDK2/Cyclin A2 (Homo sapiens) (UniProt P24941+P20248); settings: dose 10.0 nM
NCI-H446 [21] = experiment: Antitumor activity against human NCI-H446 cells xenografted in female NU-NU mouse model assessed as decrease in Ki67 level in tumor at 12.5 to 25 mg/kg, po administered once daily for 15 days by immunohistochemical staining based analysis; format: functional, organism-based; settings: dose 12.5-25 mg/kg, time 15.0 day
[22] = tested on: Small cell lung cancer cell line; experiment: Antitumor activity against LDI-0060-200770 patient derived Small cell lung cancer cell line xenografted in BALB/c nude mouse assessed as reduction in tumor growth at 25 mg/kg, po administered once daily for 7 days; format: functional, organism-based; settings: Homo sapiens, time 7.0 day
NCI-H446 [23] = experiment: Antitumor activity against human NCI-H446 cells xenografted in female NU-NU mouse model assessed as increase in cleaved caspase-3 expression in tumor at 12.5 to 25 mg/kg, po administered once daily for 15 days by immunohistochemical staining based analysis; format: functional, organism-based; settings: dose 12.5-25 mg/kg, time 15.0 day

T1 sequence (P50750 whole entry, looked up): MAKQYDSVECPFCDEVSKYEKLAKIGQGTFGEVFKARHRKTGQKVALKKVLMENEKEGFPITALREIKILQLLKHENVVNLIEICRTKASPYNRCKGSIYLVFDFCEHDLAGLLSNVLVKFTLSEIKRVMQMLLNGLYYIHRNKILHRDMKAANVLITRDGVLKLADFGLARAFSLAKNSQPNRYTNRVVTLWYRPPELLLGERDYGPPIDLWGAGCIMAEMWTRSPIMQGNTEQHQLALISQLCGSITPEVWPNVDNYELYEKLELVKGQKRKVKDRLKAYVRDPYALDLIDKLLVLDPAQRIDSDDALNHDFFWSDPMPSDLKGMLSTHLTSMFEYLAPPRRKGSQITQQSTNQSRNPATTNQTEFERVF
T1 sequence (Q96SW2 whole entry, looked up): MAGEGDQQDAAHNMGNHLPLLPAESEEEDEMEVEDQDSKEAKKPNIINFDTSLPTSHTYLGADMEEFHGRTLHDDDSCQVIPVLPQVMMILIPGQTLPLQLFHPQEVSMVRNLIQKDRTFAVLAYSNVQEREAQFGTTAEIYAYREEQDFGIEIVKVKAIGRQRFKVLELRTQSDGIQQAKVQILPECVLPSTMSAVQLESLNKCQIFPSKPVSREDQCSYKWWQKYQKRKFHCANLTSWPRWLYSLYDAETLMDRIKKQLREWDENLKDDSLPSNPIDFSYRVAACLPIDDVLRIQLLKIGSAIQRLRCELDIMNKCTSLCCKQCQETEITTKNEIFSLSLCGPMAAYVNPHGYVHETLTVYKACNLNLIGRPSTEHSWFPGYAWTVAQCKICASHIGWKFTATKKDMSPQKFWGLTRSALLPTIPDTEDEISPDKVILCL
Chain of Cyclin-dependent kinase 1/cyclin B1 (Homo sapiens) (P06493 whole entry, looked up): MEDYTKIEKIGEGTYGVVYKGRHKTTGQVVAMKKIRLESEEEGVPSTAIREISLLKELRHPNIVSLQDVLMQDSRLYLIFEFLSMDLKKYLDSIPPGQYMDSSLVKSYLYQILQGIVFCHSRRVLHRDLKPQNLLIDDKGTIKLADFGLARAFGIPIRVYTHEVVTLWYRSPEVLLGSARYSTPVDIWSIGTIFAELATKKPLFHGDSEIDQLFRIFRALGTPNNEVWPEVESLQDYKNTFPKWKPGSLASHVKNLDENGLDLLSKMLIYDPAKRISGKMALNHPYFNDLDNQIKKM
Chain of Cyclin-dependent kinase 1/cyclin B1 (Homo sapiens) (P14635 whole entry, looked up): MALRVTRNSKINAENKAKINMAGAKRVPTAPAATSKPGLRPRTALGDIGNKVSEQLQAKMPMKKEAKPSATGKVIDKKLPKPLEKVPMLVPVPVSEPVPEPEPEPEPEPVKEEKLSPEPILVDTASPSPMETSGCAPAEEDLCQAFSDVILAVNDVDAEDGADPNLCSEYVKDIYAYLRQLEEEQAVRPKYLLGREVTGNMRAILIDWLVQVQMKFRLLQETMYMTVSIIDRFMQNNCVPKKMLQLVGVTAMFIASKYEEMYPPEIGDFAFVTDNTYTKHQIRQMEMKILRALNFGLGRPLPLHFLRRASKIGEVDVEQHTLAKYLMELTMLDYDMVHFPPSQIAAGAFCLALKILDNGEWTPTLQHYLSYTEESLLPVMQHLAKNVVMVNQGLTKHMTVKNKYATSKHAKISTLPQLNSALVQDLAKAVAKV
Chain of Cyclin-dependent kinase 9 (Homo sapiens) (P50750 whole entry): as the sequence (P50750 whole entry, looked up) above
Chain of CDK3/Cyclin E (Homo sapiens) (P24864 whole entry, looked up): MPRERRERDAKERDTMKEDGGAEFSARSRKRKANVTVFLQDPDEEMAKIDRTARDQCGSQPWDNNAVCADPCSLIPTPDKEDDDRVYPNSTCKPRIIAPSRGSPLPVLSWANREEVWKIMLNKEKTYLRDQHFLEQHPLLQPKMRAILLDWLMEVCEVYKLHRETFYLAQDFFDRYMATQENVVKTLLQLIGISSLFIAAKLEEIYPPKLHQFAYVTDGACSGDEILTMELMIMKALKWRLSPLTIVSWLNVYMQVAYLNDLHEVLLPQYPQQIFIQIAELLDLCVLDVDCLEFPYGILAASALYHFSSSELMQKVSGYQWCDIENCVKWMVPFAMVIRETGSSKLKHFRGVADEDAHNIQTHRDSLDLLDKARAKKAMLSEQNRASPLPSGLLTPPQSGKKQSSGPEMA
Chain of CDK3/Cyclin E (Homo sapiens) (Q00526 whole entry, looked up): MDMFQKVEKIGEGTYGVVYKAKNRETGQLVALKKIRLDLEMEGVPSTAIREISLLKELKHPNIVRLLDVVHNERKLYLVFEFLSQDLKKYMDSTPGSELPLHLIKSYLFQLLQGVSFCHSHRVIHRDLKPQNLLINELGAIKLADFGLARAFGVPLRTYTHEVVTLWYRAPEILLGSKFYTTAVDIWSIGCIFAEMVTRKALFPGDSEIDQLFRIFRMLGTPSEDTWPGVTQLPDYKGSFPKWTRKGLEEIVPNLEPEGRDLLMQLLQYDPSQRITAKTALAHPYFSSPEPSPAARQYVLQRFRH

Question: With `O=C1CCC(Nc2cccc(N3CCN(CC4CCN(CC(=O)N5CCC(NC(=O)c6n[nH]cc6NC(=O)c6c(Cl)cccc6Cl)CC5)CC4)CC3)c2)C(=O)N1` (centres undefined) as the compound, how does the Activity (NCI-H446 [1]) read?
Answer: Active

Question: What about the Activity [2] of the same compound?
Answer: Active

Question: And the inhibition [3]?
Answer: Active

Question: And the Activity (NCI-H69 [4])?
Answer: Dose-dependent-effect

Question: And the inhibition [5]?
Answer: 55%

Question: What about the Activity [6] of the same compound?
Answer: inactive

Question: What about the Activity (NCI-H446 [7]) of the same compound?
Answer: Dose-dependent-effect

Question: What about the Activity [8] of the same compound?
Answer: Active

Question: What about the Activity [9] of the same compound?
Answer: Active

Question: And the Activity (NCI-H69 [10])?
Answer: inactive

Question: And the inhibition [11]?
Answer: 35%

Question: And the Activity [12]?
Answer: Time-dependent-effect

Question: And the inhibition (NCI-H446 [13])?
Answer: Active

Question: What about the inhibition [14] of the same compound?
Answer: 31%

Question: And the Activity (NCI-H69 [15])?
Answer: Active

Question: What about the inhibition [16] of the same compound?
Answer: 46%

Question: And the inhibition (DMS-114)?
Answer: Active

Question: And the Activity [17]?
Answer: Active

Question: What about the Activity [18] of the same compound?
Answer: Active

Question: What about the Activity [19] of the same compound?
Answer: inactive

Question: What about the inhibition [20] of the same compound?
Answer: 33%

Question: And the Activity (NCI-H446 [21])?
Answer: Active

Question: And the Activity [22]?
Answer: Active

Question: And the Activity (NCI-H446 [23])?
Answer: Active
